The record followed here is ChEMBL document CHEMBL4613321, “Discovery of Small-Molecule Stabilizers of 14-3-3 Protein-Protein Interactions via Dynamic Combinatorial Chemistry” (ACS Med Chem Lett, 2020).

Test [1] concerns the target T1, 14-3-3 protein zeta/delta (Homo sapiens) (UniProt P63104).
T1 sequence (whole entry): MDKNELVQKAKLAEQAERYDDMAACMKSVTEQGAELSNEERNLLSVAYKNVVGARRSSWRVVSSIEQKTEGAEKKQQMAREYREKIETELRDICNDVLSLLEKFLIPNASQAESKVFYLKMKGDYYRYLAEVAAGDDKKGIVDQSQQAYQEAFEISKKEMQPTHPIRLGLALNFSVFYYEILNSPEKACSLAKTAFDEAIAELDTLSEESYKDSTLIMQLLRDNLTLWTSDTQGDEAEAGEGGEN
Description: Competitive binding affinity to 14-3-3 zeta (unknown origin) at 1000 uM in presence of 25 uM synaptopodin by SPR analysis.

Test [2] addresses T2, 14-3-3 protein zeta/delta (Homo sapiens, UniProt P63104).
T2 sequence (P63104 whole entry): T1 sequence (whole entry)
Description: Binding affinity to 14-3-3 zeta (unknown origin) by SPR analysis.

Test [3] addresses T1, 14-3-3 protein zeta/delta (Homo sapiens). Description: Competitive binding affinity to 14-3-3 zeta (unknown origin) at 200 uM in presence of 1 uM synaptopodin by SPR analysis. (In general: In SPR one partner is held on a chip, and binding of the other changes the refractive index at the surface.)
The target of test [4] is T2, 14-3-3 protein zeta/delta. Nature of the test: Binding affinity to 14-3-3 zeta (unknown origin) assessed as 14-3-3 zeta-synaptopodin interaction by fluorescence polarization assay. Background: Fluorescence polarisation rises when a labelled molecule tumbles more slowly, as on binding a larger partner.
Test [5] addresses T1, 14-3-3 protein zeta/delta (Homo sapiens). Description: Competitive binding affinity to 14-3-3 zeta (unknown origin) at 1000 uM in presence of 1 uM synaptopodin by SPR analysis.
For test [6] the target is unchanged. Description: Competitive binding affinity to 14-3-3 zeta (unknown origin) at 25 uM in presence of 1 uM synaptopodin by SPR analysis.
The target is the same in test [7]. Description: Binding affinity to 14-3-3 zeta (unknown origin) assessed as response unit at 3.1 to 50 uM by SPR analysis.
Test [8] has the same target. Description: Binding affinity to 14-3-3 zeta (unknown origin) assessed as half life for dissociation by SPR analysis.
Test [9] has the same target. Description: Binding affinity to 14-3-3 zeta (unknown origin) assessed as association rate constant by SPR analysis.
For test [10] the target is unchanged. Nature of the test: Binding affinity to 14-3-3 zeta (unknown origin) assessed as dissociation rate constant by SPR analysis.

Active and inactive are the calls of the source. The calls are words filed in the database; no cut-off is given here.

For `O=C(N/N=C/c1cccc(Cl)c1Cl)c1ccccc1P(=O)(O)O`, the result in [1], in test [3] and in test [5] was Active. Binding in test [2] was put at a Kd of 1010 µM. For the same compound, the half-maximal effective concentration (EC50) in test [4] stood at 120 µM.

With `O=C(N/N=C/c1cccc(Cl)c1Cl)c1cc2c(s1)CCCC2`, the outcome in test [6] was Active. Besides, the affinity in test [2], expressed as Kd, was 15 µM. In addition, the RUmax in [7] turned out to be 4.5. For the same compound, the T1/2 in [8] was found to be 80 s. Also, in test [9], the Ka was determined as 5.8 ×10² /M/s. In addition, the Kdiss in test [10] was 8.7 ×10⁻³ /s.

On to `O=C(N/N=C/c1cccc(Br)c1)c1cc2c(s1)CCCC2`, for which the result in test [6] was Active. In test [2], this compound yielded a Kd of 16 µM. Moreover, in test [7], the RUmax stood at 4.6. The T1/2 in test [8] came to 17 s. In test [9], the Ka turned out to be 2.6 ×10³ /M/s. The Kdiss in test [10] came to 4.1 ×10⁻² /s.

Broadly, the Kd is a measure of binding affinity in units of concentration. Low readings indicate higher affinity, high ones lower affinity. In general, EC50 refers to the concentration that produces a half-maximal response.
